Source: PubChem BioAssay (NCI)
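Each compound was tested at five concentrations against cells in 96-well plates for 48 hours. GI50: concentration for 50% inhibition of growth. TGI is the concentration that stops growth completely.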

Columns and labels:
Assay in all cases: inhibition of tumour cell growth, NCI panel, 48 h
[1] = test system: 786-0 renal
[2] = test system: A498 renal
[3] = test system: A549 NSCLC
[4] = test system: ACHN renal
[5] = test system: BT-549 breast
[6] = test system: CAKI-1 renal
[7] = test system: CCRF-CEM leukemia
[8] = test system: COLO 205 colon
[9] = test system: DU-145 prostate
[10] = test system: EKVX NSCLC
[11] = test system: HCC-2998 colon
[12] = test system: HCT-116 colon
[13] = test system: HCT-15 colon
[14] = test system: HL-60(TB) leukemia
[15] = test system: HOP-62 NSCLC
[16] = test system: HOP-92 NSCLC
[17] = test system: HS 578T breast
[18] = test system: HT29 colon
[19] = test system: IGROV1 ovarian
[20] = test system: K-562 leukemia
[21] = test system: KM12 colon
[22] = test system: LOX IMVI melanoma
[23] = test system: M14 melanoma
[24] = test system: MALME-3M melanoma
[25] = test system: MCF7 breast
[26] = test system: MDA-MB-231 breast
[27] = test system: MDA-MB-435
[28] = test system: MOLT-4 leukemia
[29] = test system: NCI-H226 lung
[30] = test system: NCI-H23 lung

## COc1ccc(C(=O)c2cc(OC)c(OC)c(OC)c2)cc1OC(=O)C(Cl)(Cl)Cl
[1]
  GI50: 587 nM
  TGI: > 100000 nM
[2]
  GI50: 1970 nM
  TGI: 7180 nM
[3]
  GI50: 154 nM
  TGI: > 100000 nM
[4]
  GI50: 32.9 nM
  TGI: > 100000 nM
[5]
  GI50: 11.8 nM
  TGI: 880 nM
[6]
  GI50: 140 nM
  TGI: > 100000 nM
[7]
  GI50: < 18.3 nM
  TGI: > 100000 nM
[8]
  GI50: 1310 nM
  TGI: 23200 nM
[9]
  GI50: 28.4 nM
  TGI: > 100000 nM
[10]
  GI50: 3160 nM
  TGI: > 100000 nM
[11]
  GI50: 46.2 nM
  TGI: > 100000 nM
[12]
  GI50: 28.4 nM
  TGI: > 100000 nM
[13]
  GI50: < 10 nM
  TGI: > 100000 nM
[14]
  GI50: < 10 nM
  TGI: < 19.1 nM
[15]
  GI50: 83 nM
  TGI: > 100000 nM
[16]
  GI50: 470 nM
  TGI: > 100000 nM
[17]
  GI50: 18 nM
  TGI: > 100000 nM
[18]
  GI50: 2000 nM
  TGI: > 100000 nM
[19]
  GI50: 312 nM
  TGI: > 100000 nM
[20]
  GI50: < 10 nM
  TGI: > 100000 nM
[21]
  GI50: < 10 nM
  TGI: > 100000 nM
[22]
  GI50: < 13.4 nM
  TGI: > 100000 nM
[23]
  GI50: < 10 nM
  TGI: > 100000 nM
[24]
  TGI: > 100000 nM
[25]
  GI50: 27.2 nM
  TGI: > 100000 nM
[26]
  GI50: 158 nM
  TGI: > 100000 nM
[27]
  GI50: < 10 nM
[28]
  GI50: < 19.9 nM
  TGI: > 50200 nM
[29]
  GI50: 15400 nM
  TGI: > 100000 nM
[30]
  GI50: 62.7 nM
